Laboratory results from a melting point compilation (Tetko et al.; mined from patent text by program, amines drawn as free bases though some values may be those of a salt).

| Structure (SMILES) | melting point |
| --- | --- |
| Nc1cnccc1-c1ccc(Cl)cc1 | 144 to 146 °C |
| Cn1cccc1Cc1cccc(NC(N)=O)c1 | 84 to 86 °C |
| O=Cc1ccc(C(=O)Nc2ccc(Cl)cc2)cc1 | 158 °C |
| CCOCc1nc2c(N)nc3ccccc3c2n1CC1(O)CCN(C(=O)OCC)CC1 | 165 to 167 °C |
| COc1ncnc(OC)c1NC(N)=S | 210 °C |
| CCn1cc(C(=O)O)c(=O)c2cnc(N3CCN(Cc4ccccc4)CC3)nc21 | 207 °C |
| CCOC(=O)C1=C(COC)NC(COC)=C(C(=O)OCC)C1c1ccc(SC)cc1 | 136 to 138 °C |
| COC(=O)[C@H]1Cc2c([nH]c3ccccc23)[C@@H](c2ccc3c(c2)OCO3)N1C(=O)C(C)Cl (stereo partly specified) | 125 to 127 °C |
| CC1(C)CN(CC2Cc3ccccc3O2)c2nc(-c3ccncc3)cc(=O)n2C1 (racemic) | 147 to 149 °C |
| c1ccc2c(c1)CSSC2 | 77 to 78 °C |
| Cc1cn(C)cc1-c1cc2nccnc2[nH]1 | 210 °C |
| Cc1ccc(Oc2cccc(-c3cccc(C(=O)NCCC#N)c3)n2)c(C)c1 | 114 to 115 °C |
| CCN(CC)C(=O)c1c(C=O)ccnc1OC | < 50 °C |
| COc1ccc(-c2cn(C)cc(-c3cccc(C(F)(F)F)c3)c2=O)cc1 | 160 to 162 °C |
| COc1ccc(-c2c(Cl)c(CNC(C)(C)C)nc3sc4c(c23)CCN(Cc2ccccc2)C4)cc1OC | 134 to 135 °C |
| CCNC(=O)n1nc(Oc2ncc(Cl)cc2Cl)cc1C | 74 to 76 °C |
| N#Cc1c(-c2ccccc2)c(-c2ccccc2)n[nH]c1=O | 280 to 281 °C |
| Cc1cc(C(=O)C(=O)c2ccc(OC(F)F)cc2)ccc1F | 77 to 78 °C |
| Cc1nn(-c2cc(Oc3ccc(C(=O)O)cc3)c(Cl)cc2F)c(=O)n1C(F)F | 184 to 185 °C |
| O=C(O)Cc1c(C(=O)O)c2cc(Oc3cccc(Cl)c3)ccc2n1-c1ccc(OC(F)(F)F)cc1 | 190 to 195 °C |
| O=C(O)C=CC(=O)N(CC1CO1)NCC1CO1 (stereo unspecified) | 58 °C |
| CCCCCCCCCCCCCCCCCCSC(=O)Nc1ccccc1 | 85.5 to 86.5 °C |
| O=C1c2ccccc2-c2ccncc21 | 152 to 153 °C |
| Clc1cc(Br)cnc1Br | 40 to 41 °C |

| Structure (SMILES) | melting point |
| --- | --- |
| NP(N)(=O)Nc1ccccc1[N+](=O)[O-] | 200 °C |
| O=C1c2cc3c(cc2-c2c1c(Cl)nc1ccccc21)OCO3 | 265 to 270 °C |
| O=C(O)C1COc2ccc(Cl)c(Cl)c2O1 (stereo unspecified) | 144 to 148 °C |
| N#CNC(=NC1CCN(Cc2ccccc2)CC1)N1CCOCC1 | 163 to 165 °C |
| Cc1cc(CCCCCOc2cc(Cl)c(-c3nnco3)c(Cl)c2)on1 | 73 to 74 °C |
| Nc1ccc(NC(=O)c2ccc(CNC(=O)OCc3cccnc3)cc2)cc1 | 204 to 205 °C |
| COC(=O)CCn1c(=O)n(CCN2CCN(c3cccc(Cl)c3)CC2)c(=O)c2cscc21 | 150 °C |
| NS(=O)(=O)c1cc(S(N)(=O)=O)c(-c2ccccc2)cc1F | 174 to 175 °C |
| CCOC(=O)c1ncc2[nH]c3ccc(P(=O)(CC)CC)cc3c2n1 | 195 to 197 °C |
| CCCCCCCCCCCCCCCCS(=O)(=O)OC1CN(C2CCC3(C)C(CCC4C3CCC3(C)C(C(C)CCCC(C)C)CCC43)C2)C1 (stereo unspecified) | 64.5 to 68 °C |
| O=C1NC(=O)C2(c3cc(O)c(Cl)cc3F)CCCCC12 (stereo unspecified) | 140 to 141 °C |
| CC(C)(C)OC(=O)N1CCC[C@@H](Nc2nccc(-c3c(-c4cccc(C#N)c4)nc4sccn34)n2)C1 | 108 to 110 °C |
| COC1(c2cc(O)cc(F)c2)CCOC1 (stereo unspecified) | 136 to 137 °C |
| CCCCc1nc(Cl)c(CC(=O)OCC)c(Cc2ccc(C(=O)OC(C)(C)C)cc2)n1 | 65 °C |
| O=C(O)c1ccc(C(F)F)o1 | 112 to 113 °C |
| C#CCOc1ccc2c(Cl)nnc(C)c2c1 | 178 to 180 °C |
| CCCCCC(C)Oc1cc(O)c2c(c1)OC(C)(C)C1CCC(=O)C=C21 (stereo unspecified) | 185 to 189 °C |
| CC1(C)Oc2cc([N+](=O)[O-])sc2C(N2CCCCC2=O)C1O (stereo unspecified) | 158 °C |
| CC(C)(C)c1cc(-c2nn(CC(=O)O)c3ncccc23)cc(C(C)(C)C)c1O | 210 to 212 °C |
| COc1ccccc1-n1nc(S(=O)(=O)c2ccc(Cl)cc2)c(C)c(C#N)c1=O | 175 to 178 °C |
| COP(=O)(CC1(O)O[C@H](COCc2ccccc2)[C@@H](OCc2ccccc2)[C@H](OCc2ccccc2)[C@H]1OCc1ccccc1)OC (stereo partly specified) | 112 to 113 °C |
| CCOC(=O)C1CCC(=C(C#N)C(=O)c2ccc(Cl)cc2)N1 (stereo unspecified) | 108 to 110 °C |
| CN(c1cccc2cc(C3=NCC(C)(CCN4CCOCC4)S3)[nH]c12)S(=O)(=O)c1cccs1 (stereo unspecified) | 154 to 155 °C |
| Cc1sccc1C1(c2cccc(-c3cncnc3)c2)N=C(N)N(C)C1=O (stereo unspecified) | 154 to 159 °C |

| Structure (SMILES) | melting point |
| --- | --- |
| CCn1c(=O)c2c(nc(C=Cc3ccc(C(=O)O)cc3OC)n2C)n(CC)c1=O | > 280 °C |
| CC1=C(C)CC(C(=O)O)OC1 (stereo unspecified) | 82 to 84 °C |
| Cc1nnc2n1-c1ccc(I)cc1C(c1ccccc1Cl)=NC2 | 290 to 292 °C |
| Cc1oc2c(NC(=O)c3c(Cl)cccc3Cl)cccc2c1COC(=O)CCCC(=O)NC(P(=O)(O)O)P(=O)(O)O | 190 to 195 °C |
| COCc1nc(-c2ccc(Br)c(C)c2)no1 | 52 to 53.5 °C |
| Cc1c(NC(=O)CC(C)(C)C)cc2c(c1C)OC(C)(C)C2(O)c1cccc(CO)c1 (stereo unspecified) | 169 to 171 °C |
| CCOc1cc(-c2cc(C(F)(F)F)n3ncc(C(=O)Nc4cccc(S(=O)(=O)NC(C)(C)CO)c4)c3n2)ccc1C(F)(F)F | 268 °C |
| Cc1ccc(CN2CCN(C(=O)OC(C)(C)C)CC2)cc1 | 61 to 62 °C |
| O=C1NC(=O)C2(N1)C(=O)N(Cc1ccc(Br)cc1F)c1c(C(F)(F)F)cccc12 (stereo unspecified) | 197 to 199 °C |
| COc1ccc(C#CCCCCOc2ccc(C(=O)c3cccc(C(=O)O)c3)cc2CCC(=O)O)cc1 | 144 to 146 °C |
| O=C(F)N(SN1CCOCC1)c1ccccc1 | 71 to 72 °C |
| CCCC(=O)C1=C(O)CC(c2cccc3c2OCO3)CC1=O (stereo unspecified) | 81 to 82 °C |
| CCOc1ccc(F)cc1NC(=O)Nc1ccc(N2CCN(C(=O)OC(C)(C)C)CC2)cc1 | 168 to 169 °C |
| CC(=O)n1cc(-c2ccccc2)c(-n2cnnc2)n1 | 165 to 168 °C |
| O=C(Nc1cnc2scnc2c1)c1cc2cc(F)ccc2n1Cc1cccc(F)c1 | 250 to 251 °C |
| CCOC(=O)Cc1cccc(NC=O)n1 | 35 to 38 °C |
| CCc1ccc2c(c1)C=Cc1cc(C)ccc1C2c1cn(Cc2ccc(C(=O)Nc3nnn[nH]3)o2)c(=O)[nH]c1=S (stereo unspecified) | 260 °C |
| CCCN(C(=O)CC)c1c(C#N)cnn1-c1ccc(OC(F)(F)F)cc1Cl | 83 °C |
| COC(=O)c1ccc(C(=O)c2ccc(C(=O)OC)cc2)cc1 | 228 to 230 °C |
| Nc1ccccc1NC(=O)c1ccc(CNC(=O)c2[nH]c(-c3ccoc3)cc2-c2ccc(O)cc2)cc1 | 70 to 72 °C |
| CC(C)SC1=C(C#N)C(c2ccccc2)(c2ccccc2)C(=O)N1 | 160 °C |
| CC(C)(NCc1ccc(Oc2ccc3c(c2)OCO3)cc1)C(N)=O | 123 to 124 °C |
| O=C(O)c1ccc2cc([N+](=O)[O-])c3ccc(C(=O)O)nc3c2n1 | 218 to 220 °C |
